Source: patent publication EP1206494B1, “COMPUTATIONAL DESIGN METHODS FOR MAKING MOLECULAR MIMETICS” (SYNT:EM S.A., priority 1999, dated 2001)
One block for each compound: values may come before it. Where a SMILES comes first, the peptide text is derived from it. Bridges are numbered along the chain shown (N, C = ends). Mpa = O=C(O)CCS

Assays:
[1] = test system: HIV-1-LAI strain; test: Antiviral activity assay on PBMCs infected by HIV isolates (reverse transcriptase in day 7 supernatant); type: cell-based; details: Human immunodeficiency virus 1, PBMC
Procedure: Mononucleated cells were isolated from peripheral blood of a healthy donor (and seronegative for HIV and hepatitis viruses) with a gradient of Ficoll-Hypaque. The PBMCs were activated by […] of phytohemaglutinine-P (PHA-P, Difco Laboratories, Detroit, USA) during three days, then cultured at 200,000 cells per well in a 96-well plate, in a culture medium A, complemented by 20 IU/ml of recombinant interleukin-2 (rHuIL-2, Roche Products, Mannheim, Germany). Medium A consists of: RPMI cell culture (RPMI 1640, Roche Products), 10% Fetal Calf Serum (FCS, Roche Products complement inactivated by heating at 56°C for 45mn, 2mM L-glutamine (Roche Products) and a solution of three antibiotics (penicillin, streptomycin and neomycin (PSN, LifeTechnologies, Grand Island, JSA). During culture, cells were maintained at +37°C, in a saturated humid atmosphere, under 5% CO2.
(§1) PBMCs were infected over 1 hour at 37°C with a 10 000 tissue culture infectious dose 50% (TCID50) of the lymphocytary tropism reference strain HIV-1-LAI. At the end of the incubation, cells were washed twice with medium A. The HIV-1 strain was exclusively amplified, in the Neurovirology Service, with Umbilical Blood Mononucleated Cells (UBMC) activated with PHA-P, and the TCID50 was calculated using the Kärber formula.
The mimetic and the scrambled peptide were dissolved in ultrapure sterile water. Five concentrations were tested (50 µM, 10 µM, 5 µM, 1 µM and 0.5 µM). Antibodies ST40 and 9E8 (provided by the CNRS UMR 9921, Montpellier) were tested at the following concentrations: 100 µg/ml, 10 µg/ml, 1 µg/ml, 100 ng/ml and 10 ng/ml.
(§2) The activities of these compounds were compared to the Q4120 reference antibody and to AZT. […] The anti-HIV activity of AZT was measured at the following concentrations: 10 µM, 1 µM, 100 nM, 10 nM and 1 nM. […]
(§3) All experiments were performed in triplicate. […] The viral replication was measured by dosing the inverse transcriptase activation in the supernatant of the 7th day culture, using a dosing kit Retrosys(r), supplied by Innovagen (Lund, Sweden).

[2] = molecular target: T1, human recombinant CD4 (Homo sapiens, UniProt P01730); test: BIAcore surface plasmon resonance kinetic analysis: binding of soluble CD4 to immobilized mimetic
T1 construct: purchased RepliGen (USA)
Procedure: The human recombinant CD4 used for the kinetic analysis and the biological assays was obtained from RepliGen (USA).
The kinetic parameters, association rate constant (ka) and dissociation rate constant (kd), were determined by surface plasmon resonance (SPR) analysis using BIACORE 2000 (Biacore AB, Uppsala, Sweden). ka and kd were determined using BIAevaluation 3.0 software (BIAcore AB). The apparent equilibrium constant KD is the ratio kd/ka. All experiments were carried out at 25°C.
The free SH group of the lysine side chain extended by a 3-mercaptopropionic acid linker of the mimetic was used to chemically immobilize molecules on a B1 sensor chip (BIAcore AB) following a standard PDEA/EDC/NHS procedure from BIAcore.
The binding kinetic of CD4 to immobilized mimetic was determined by injecting CD4 (1-20 µg/ml, 16-330 nM) in HBS buffer (running buffer) at a flow rate of 30 µl/min.

[3] = test system: HIV-1-LAI strain; type: cell-based; details: dose independent, non-linear behavior
Procedure: Mononucleated cells were isolated from peripheral blood of a healthy donor (and seronegative for HIV and hepatitis viruses) with a gradient of Ficoll-Hypaque. The PBMCs were activated by […] of phytohemaglutinine-P (PHA-P, Difco Laboratories, Detroit, USA) during three days, then cultured at 200,000 cells per well in a 96-well plate, in a culture medium A, complemented by 20 IU/ml of recombinant interleukin-2 (rHuIL-2, Roche Products, Mannheim, Germany). […]
as §1, with “formula. […]” for “formula.”
as §2, §3

SMILES: Cc1cn([C@H]2C[C@H](N=[N+]=[N-])[C@@H](CO)O2)c(=O)[nH]c1=O [AZT]
inhibition at 0.001 µM [1]: 66 ± 5% | inhibition at 0.01 µM [1]: 74 ± 13% | inhibition at 0.1 µM [1]: 100%

kon ([2]; immobilized mimetic and soluble CD4, 25°C, read-out: ka): 82600 M⁻¹ s⁻¹ | Kd ([2]; ratio kd/ka, read-out: calculated KD): 3.2 nM
SMILES: CC(=O)N[C@@H](C)C(=O)N[C@@H](CCCNC(=N)N)C(=O)N[C@@H](CCCNC(=N)N)C(=O)N1CCC[C@H]1C(=O)N[C@H]1CCCCNC(=O)[C@@H]2CCCN2C(=O)CNC(=O)[C@H](Cc2ccc(O)cc2)NC(=O)[C@H](C)NC(=O)[C@H](C(C)C)NC(=O)[C@H](Cc2c[nH]c3ccccc23)NC(=O)[C@@H]2CCCN2C(=O)CNC(=O)[C@H](Cc2c[nH]c3ccccc23)NC(=O)[C@H](C(C)C)NC(=O)[C@H](CC(N)=O)NC(=O)[C@@H]2CCCN2C(=O)[C@H](Cc2c[nH]cn2)NC(=O)[C@H](CC(N)=O)NC(=O)[C@H](CCCCNC(=O)CCS)NC(=O)[C@H](C(C)C)NC(=O)[C@H](Cc2ccc(O)cc2)NC(=O)[C@@H]2CCCN2C(=O)[C@H](C)NC(=O)[C@H](CCCNC(=N)N)NC(=O)[C@H](Cc2ccc(O)cc2)NC(=O)[C@H](Cc2ccccc2)NC1=O [Mk3Tyr-long1SH] (Ac-ARRPKFYRAPYVK(Mpa)NHPNVWGPWVAYGP; lactam 5-C)

SMILES: CC[C@H](C)[C@H](NC(C)=O)C(=O)N[C@@H](Cc1c[nH]c2ccccc12)C(=O)N[C@H](C(=O)N[C@H]1CCCCNC(=O)CNC(=O)[C@H](Cc2c[nH]c3ccccc23)NC(=O)[C@H](C(C)C)NC(=O)[C@@H]2CCCN2C(=O)[C@H](CCCNC(=N)N)NC(=O)[C@H](C)NC(=O)[C@H](CC(N)=O)NC(=O)[C@@H]2CCCN2C(=O)[C@H](C)NC(=O)[C@H](CCCNC(=N)N)NC(=O)[C@@H]2CCCN2C(=O)CNC(=O)[C@H](Cc2ccc(O)cc2)NC(=O)[C@H](Cc2ccccc2)NC(=O)[C@H](CS)NC(=O)[C@H](CCCNC(=N)N)NC(=O)[C@H](CC(N)=O)NC(=O)[C@H](Cc2ccc(O)cc2)NC(=O)[C@@H]2CCCN2C(=O)[C@H](C(C)C)NC(=O)[C@H](Cc2c[nH]cn2)NC(=O)[C@@H]2CCCN2C(=O)[C@H](C)NC1=O)C(C)C [scrambled peptide] (Ac-IWVKAPHVPYNRCFYGPRAPNARPVWG; lactam 4-C)
anti-retroviral activity (in words) [3]: within the background noise
